We go through 27 molecules from patent publication US11591326B2, “Inhibitors of protein arginine methyltransferase 5 (PRMT5), pharmaceutical products thereof, and methods thereof” (PHARMABLOCK SCIENCES (NANJING), INC., priority 2018, dated 2023).

pIC50: −log10 of the molar value.

This experiment deals with Human recombinant PRMT5 in complex with human recombinant MEP50 (Homo sapiens (Human), UniProt O14744). Description: PRMT5/MEP50 AlphaLISA enzyme inhibitory assay. The experiment is classed as biochemical. Particulars: PRMT5/MEP50 25 nM, SAM 10 μM, Biotin-H4 peptide 30 nM. From the text: Human recombinant PRMT5 in complex with human recombinant MEP50, co-expressed in an insect cell/baculovirus expression system was purchased from Reaction Biology (Malvern, Pa.). […] Anti-H4R3-Me AlphaLISA acceptor beads and Streptavidin labeled AlphaLISA donor beads were obtained from PerkinElmer (Waltham, Mass.). S-adenosylmethionine (SAM), Tween20, dimethylsulfoxide (DMSO), and Tris buffer were obtained from Sigma at the highest level of purity available.
Human recombinant PRMT5 in complex with human recombinant MEP50, sequence (O14744 whole entry): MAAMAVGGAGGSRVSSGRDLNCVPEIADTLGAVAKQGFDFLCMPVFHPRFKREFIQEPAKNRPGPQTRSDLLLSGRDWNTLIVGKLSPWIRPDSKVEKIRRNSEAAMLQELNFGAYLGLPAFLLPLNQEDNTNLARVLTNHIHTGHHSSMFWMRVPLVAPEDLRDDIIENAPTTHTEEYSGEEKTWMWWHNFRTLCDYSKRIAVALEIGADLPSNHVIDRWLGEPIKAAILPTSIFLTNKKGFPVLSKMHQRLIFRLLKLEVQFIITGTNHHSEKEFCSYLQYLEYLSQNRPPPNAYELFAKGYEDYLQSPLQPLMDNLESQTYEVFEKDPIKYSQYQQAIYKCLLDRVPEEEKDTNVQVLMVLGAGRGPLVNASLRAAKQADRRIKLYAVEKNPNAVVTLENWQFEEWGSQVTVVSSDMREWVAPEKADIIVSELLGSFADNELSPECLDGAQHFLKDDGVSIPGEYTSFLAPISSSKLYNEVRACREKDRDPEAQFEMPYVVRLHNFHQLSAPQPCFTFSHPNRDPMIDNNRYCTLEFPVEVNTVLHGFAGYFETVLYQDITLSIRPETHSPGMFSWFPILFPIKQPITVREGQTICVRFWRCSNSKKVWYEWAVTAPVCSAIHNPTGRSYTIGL
Human recombinant PRMT5 in complex with human recombinant MEP50, sequence (Q9BQA1 whole entry partner): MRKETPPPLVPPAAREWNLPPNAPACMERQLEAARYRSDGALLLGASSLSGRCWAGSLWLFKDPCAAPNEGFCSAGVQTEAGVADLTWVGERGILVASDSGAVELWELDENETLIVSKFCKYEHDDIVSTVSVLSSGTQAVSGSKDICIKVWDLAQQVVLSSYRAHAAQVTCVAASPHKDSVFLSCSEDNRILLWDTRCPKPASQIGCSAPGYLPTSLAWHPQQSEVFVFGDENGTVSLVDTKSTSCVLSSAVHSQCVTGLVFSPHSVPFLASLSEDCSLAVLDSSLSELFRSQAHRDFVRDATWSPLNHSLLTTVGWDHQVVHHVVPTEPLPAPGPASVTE
General Procedure for PRMT5/MEP50 AlphaLISA Enzyme Inhibitory Assays: Assays were performed in the buffer consisting of 50 mM Tris, pH 8.5, 5 mM MgCl2, 50 mM NaCl with 0.01% Tween20 and 1 mM DTT added right before the assay. 2.5 μL of compound solution in the assay buffer with 4% DMSO and 5 μL of PRMT5/MRP50 complex/SAM mixture solution in the assay buffer which was pre-incubated for 30 minutes were added into a white low volume 384 well microtiter plate. This mixture solution was incubated for 15 minutes with gentle shaking at room temperature. Methyl transfer reaction was initiated by adding 2.5 μL of Biotin-H4 (1-21) peptide substrate solution in the assay buffer. Final concentrations of PRMT5/MEP50, SAM, Biotin-H4 peptide substrate, and DMSO were 25 nM, 10 μM, 30 nM, and 1%, respectively. The reaction was allowed to perform for 120 minutes in dark with gentle shaking at room temperature after which 5 μL of Anti-H4R3-Me AlphaLISA acceptor beads in detection buffer from the manufacturer was added into the reaction mixture followed by incubation for 60 minutes. 10 μL of Streptavidin labeled AlphaLISA donor beads in detection buffer was added into the mixture followed by 30 minute incubation. Final acceptor and donor beads concentrations were 10 μg/mL. Plates were read on an Envision multimode plate reader from PerkinElmer (Waltham Mass., USA) with an excitation wavelength of 680 nm and emission wavelength of 615 nm. IC50 values of inhibitors were obtained by fitting the fluorescence intensity vs inhibitor concentrations in a sigmoidal dose-response curve (variable slopes, four parameters) using Prism 7 (La Jolla, Calif.).
A general note: Bead proximity is the source of the signal in Alpha formats.
Turning to `O=C1c2cc(Nc3ccnnc3)ccc2OCCN1C[C@@H](O)CN1CCc2ccccc2C1` [Compound 30b, (S)-4-(3-(3,4-dihydroisoquinolin-2(1H)-yl)-2-hydroxypropyl)-7-(pyridazin-4-ylamino)-3,4-dihydrobenzo[f][1,4]oxazepin-5(2H)-one], the negative logarithm of the IC50 (pIC50) is 7.44.
As for `CC(=O)N1CCC(Nc2ccc3c(c2)C(=O)N(C[C@@H](O)CN2CCc4ccccc4C2)C2CC3C2)CC1` [Compound 57b, (S)-8-((1-acetylpiperidin-4-yl)amino)-2-(3-(3,4-dihydroisoquinolin-2(1H)-yl)-2-hydroxypropyl)-2,3,4,5-tetrahydro-1H-3,5-methanobenzo[c]azepin-1-one], the figure is 6.68.
Take `O=C1c2cc(NC3CCOCC3)cnc2CCN1CC(O)CN1CCc2ccccc2C1` (stereo not drawn) [Compound 18, 6-(3-(3,4-dihydroisoquinolin-2(1H)-yl)-2-hydroxypropyl)-3-((tetrahydro-2H-pyran-4-yl)amino)-7,8-dihydro-1,6-naphthyridin-5(6H)-one]: the pIC50 is 5.65.
Take `CC(=O)N1CC(Nc2ccc3c(c2)C(=O)N(CC(O)CN2CCc4ccccc4C2)CC3)C1` (stereo not drawn) [Compound 6, 7-((1-acetylazetidin-3-yl)amino)-2-(3-(3,4-dihydroisoquinolin-2(1H)-yl)-2-hydroxypropyl)-3,4-dihydroisoquinolin-1(2H)-one]: the pIC50 was 7.11.
As for `O=C1c2cc(Nc3ccnnc3)ccc2C2(CC2)CN1CC(O)CN1CCc2ccccc2C1` (stereo not drawn) [Compound 35, 2′-(3-(3,4-dihydroisoquinolin-2(1H)-yl)-2-hydroxypropyl)-7′-(pyridazin-4-ylamino)-2′,3′-dihydro-1′H-spiro[cyclopropane-1,4′-isoquinolin]-1′-one], the figure is 8.21; as for `Cn1ccc(Nc2ccc3c(c2)C(=O)N(C[C@H](O)CN2CCc4ccccc4C2)CCO3)cc1=O` [Compound 40, (R)-4-(3-(3,4-dihydroisoquinolin-2(1H)-yl)-2-hydroxypropyl)-7-((1-methyl-2-oxo-1,2-dihydropyridin-4-yl)amino)-3,4-dihydrobenzo[f][1,4]oxazepin-5(2H)-one], 7.91.
On to `CC1Cc2ccc(NC3COC3)cc2C(=O)N1CC(O)CN1CCc2ccccc2C1` (stereo not drawn) [Compound 21, 2-(3-(3,4-dihydroisoquinolin-2(1H)-yl)-2-hydroxypropyl)-3-methyl-7-(oxetan-3-ylamino)-3,4-dihydroisoquinolin-1(2H)-one], for which the pIC50 was 6.32.
As for `Cn1cc(Nc2cnc3c(c2)C(=O)N(CC(O)CN2CCc4ccccc4C2)CC3)cn1` (stereo not drawn) [Compound 20, 6-(3-(3,4-dihydroisoquinolin-2(1H)-yl)-2-hydroxypropyl)-3-((1-methyl-1H-pyrazol-4-yl)amino)-7,8-dihydro-1,6-naphthyridin-5(6H)-one], the figure is 6.88.
For `CC1(C)CN(CC(O)CN2CCc3ccccc3C2)C(=O)c2cc(NC3COC3)ccc21` (stereo not drawn) [Compound 15, 2-(3-(3,4-dihydroisoquinolin-2(1H)-yl)-2-hydroxypropyl)-4,4-dimethyl-7-(oxetan-3-ylamino)-3,4-dihydroisoquinolin-1(2H)-one], the pIC50 was 6.66.
On to `Cc1nnc(Nc2ccc3c(c2)C(=O)N(C[C@H](O)CN2CCc4ccccc4C2)CCO3)o1` [Compound 42, (R)-4-(3-(3,4-dihydroisoquinolin-2(1H)-yl)-2-hydroxypropyl)-7-((5-methyl-1,3,4-oxadiazol-2-yl)amino)-3,4-dihydrobenzo[f][1,4]oxazepin-5(2H)-one], for which the pIC50 is 7.69.
As for `CC(=O)N1CCC(Nc2cc(F)c3c(c2)C(=O)N(C[C@@H](O)CN2CCc4ccccc4C2)CCO3)CC1` [Compound 2b, (S)-7-((1-acetylpiperidin-4-yl)amino)-4-(3-(3,4-dihydroisoquinolin-2(1H)-yl)-2-hydroxypropyl)-9-fluoro-3,4-dihydrobenzo[f][1,4]oxazepin-5(2H)-one], the figure is 6.80; as for `O=c1c2cc(Nc3ccnnc3)ccc2ccn1CC(O)CN1CCc2ccccc2C1` (stereo not drawn) [Compound 32, 2-(3-(3,4-dihydroisoquinolin-2(1H)-yl)-2-hydroxypropyl)-7-(pyridazin-4-ylamino)isoquinolin-1(2H)-one], 7.43; as for `CC(=O)N1CCC(Nc2ccc3c(c2)C(=O)N(C[C@@H](O)CN2CCc4ccccc4C2)CC3)CC1` [Compound 24b, (S)-7-((1-acetylpiperidin-4-yl)amino)-2-(3-(3,4-dihydroisoquinolin-2(1H)-yl)-2-hydroxypropyl)-3,4-dihydroisoquinolin-1(2H)-one], 7.72.
Take `CN1CC(Nc2ccc3c(c2)C(=O)N(C[C@H](O)CN2CCc4ccccc4C2)CCO3)CC1=O` (stereo partly drawn) [Compound 43, 4-((R)-3-(3,4-dihydroisoquinolin-2(1H)-yl)-2-hydroxypropyl)-7-((1-methyl-5-oxopyrrolidin-3-yl)amino)-3,4-dihydrobenzo[f][1,4]oxazepin-5(2H)-one]: the pIC50 was 7.29.
`O=C1c2cc(Nc3cnn(C4CCOCC4)c3)ccc2CCN1CC(O)CN1CCc2ccccc2C1` (stereo not drawn) [Compound 25, 2-(3-(3,4-dihydroisoquinolin-2(1H)-yl)-2-hydroxypropyl)-7-((1-(tetrahydro-2H-pyran-4-yl)-1H-pyrazol-4-yl)amino)-3,4-dihydroisoquinolin-1(2H)-one]: the pIC50 is 8.00.
Under `O=C1c2cc(Nc3cncnc3)ccc2OCCN1C[C@H](O)CN1CCc2ccccc2C1` [Compound 36, (R)-4-(3-(3,4-dihydroisoquinolin-2(1H)-yl)-2-hydroxypropyl)-7-(pyrimidin-5-ylamino)-3,4-dihydrobenzo[f][1,4]oxazepin-5(2H)-one] stands 7.99; under `Cn1cc(-c2ccc3c(c2)C(=O)N(C[C@@H](O)CN2CCc4ccccc4C2)CC3)cn1` [Compound 13, (S)-2-(3-(3,4-dihydroisoquinolin-2(1H)-yl)-2-hydroxypropyl)-7-(1-methyl-1H-pyrazol-4-yl)-3,4-dihydroisoquinolin-1(2H)-one], 6.24.
Under `CC(=O)N1CCC(Nc2ccc3c(c2)C(=O)N(CC(O)CN2CCc4ccccc4C2)CC3)CC1` (racemic) [Compound 24, 7-((1-acetylpiperidin-4-yl)amino)-2-(3-(3,4-dihydroisoquinolin-2(1H)-yl)-2-hydroxypropyl)-3,4-dihydroisoquinolin-1(2H)-one] stands 7.85; under `O=c1c2cc(NC3COC3)ccc2ccn1CC(O)CN1CCc2ccccc2C1` (stereo not drawn) [Compound 4, 2-(3-(3,4-dihydroisoquinolin-2(1H)-yl)-2-hydroxypropyl)-7-(oxetan-3-ylamino)isoquinolin-1(2H)-one], 6.52; under `O=C1c2cc(Nc3ccnnc3)ccc2CCN1CC(O)CN1CCc2ccccc2C1` (stereo not drawn) [Compound 28], 7.94.
As for `O=C1c2cc(-c3cncnc3)ccc2CCN1CC(O)CN1CCc2ccccc2C1` (stereo not drawn) [Compound 14, 2-(3-(3,4-dihydroisoquinolin-2(1H)-yl)-2-hydroxypropyl)-7-(pyrimidin-5-yl)-3,4-dihydroisoquinolin-1(2H)-one], the figure is 6.80; as for `O=C1c2cc(NC3COC3)cnc2CCN1CC(O)CN1CCc2ccccc2C1` (stereo not drawn) [Compound 16, 6-(3-(3,4-dihydroisoquinolin-2(1H)-yl)-2-hydroxypropyl)-3-(oxetan-3-ylamino)-7,8-dihydro-1,6-naphthyridin-5(6H)-one], 6.35; as for `Cn1cc(Nc2cc3c(cc2Cl)CCN(CC(O)CN2CCc4ccccc4C2)C3=O)cn1` (stereo not drawn) [Compound 26, 6-chloro-2-(3-(3,4-dihydroisoquinolin-2(1H)-yl)-2-hydroxypropyl)-7-((1-methyl-1H-pyrazol-4-yl)amino)-3,4-dihydroisoquinolin-1(2H)-one], 6.31.
For `O=C1c2cc(Nc3cccnn3)ccc2OCCN1C[C@H](O)CN1CCc2ccccc2C1` [Compound 39, (R)-4-(3-(3,4-dihydroisoquinolin-2(1H)-yl)-2-hydroxypropyl)-7-(pyridazin-3-ylamino)-3,4-dihydrobenzo[f][1,4]oxazepin-5(2H)-one], the negative logarithm of the IC50 (pIC50) was 7.65.
As for `O=c1c2cc(NC3COC3)ccc2ncn1CC(O)CN1CCc2ccccc2C1` (stereo not drawn) [Compound 3, 3-(3-(3,4-dihydroisoquinolin-2(1H)-yl)-2-hydroxypropyl)-6-(oxetan-3-ylamino)quinazolin-4(3H)-one], the pIC50 is 6.25.
As for `CN1CCN(CC(O)CN2CCc3ccccc3C2)C(=O)c2cc(Nc3ccnnc3)ccc21` (stereo not drawn) [Compound 45, 4-(3-(3,4-dihydroisoquinolin-2(1H)-yl)-2-hydroxypropyl)-1-methyl-7-(pyridazin-4-ylamino)-1,2,3,4-tetrahydro-5H-benzo[e][1,4]diazepin-5-one], the figure is 8.02.
As for `Cn1cc(Nc2ccc3c(c2)C(=O)N(CC(O)CN2CCc4ccccc4C2)CCO3)cn1` (stereo not drawn) [Compound 29], the figure is 7.41.

Broadly, the pIC50 is the IC50 on a negative log10 scale, so that one unit is a factor of ten.
